Data as given in US8354569B2, “Plant acyltransferases specific for long-chained, multiply unsaturated fatty acids” (University of Bristol, priority 2003, dated 2013).

How the values were obtained:
GPAT [1] = assay: GPAT acyl-CoA substrate specificity, linseed microsomal membranes; assay type: biochemical; settings: for Percentage incorporation in comparison with the incorporation of oleic acid: 0.2 mM acyl-CoA, 5 mM [14C] G3P, 5 minutes
Protocol: (§1) All the procedures were carried out at 4° C. The cotyledons of maturing sunflower seeds and linseed were harvested approximately 10 days after anthesis and suspended in 0.1 M sodium phosphate buffer (pH 7.2), comprising 0.33 M sucrose and 0.1% BSA (free from fatty acids). After comminution in a glass homogenizer, the homogenate was centrifuged for 30 minutes at 20 000×g. The supernatant was filtered through one layer of Miracloth and centrifuged for 90 minutes in an ultracentrifuge at 100 000×g. The pelleted microsomal membranes were washed with 0.1 M sodium phosphate buffer (pH 7.2) and resuspended in a small volume of buffer, using a glass homogenizer. The microsomal membrane preparations were either immediately processed or stored at −80° C.
(§2) The specificity of the GPAT was studied to verify whether the enzyme has a preference for certain acyl-CoAs, in particular to determine whether the GPAT from oil seed plants converts LCPUFA-CoAs. Microsomal membranes were incubated with 0.5 mM (Mortierella) or 0.2 mM (sunflower and linseed) of one of the following acyl-CoAs: myristoyl-CoA (14:0-CoA), palmitoyl-CoA (16:0-CoA), palmitoleoyl-CoA (16:1-CoA), stearoyl-CoA (18:0-CoA), oleoyl-CoA (18:1-CoA), linoleoyl-CoA (18:2-CoA), dihomo-gamma-linolenoyl-CoA (20:3-CoA) or arachidonyl-CoA (20:4-CoA) and 5 mM [^14C] G3P. Microsomal membranes (equivalent to 50 μg of protein in the case of sunflower and Mortierella and 150 μg of protein in the case of linseed) were added to the reaction mixture in order to start the reaction. After incubation for 5 minutes, the lipids were extracted by the method of Bligh & Dyer, and the radioactivity incorporated in complex lipids was determined.

LPAAT [2] = assay: LPAAT acyl-CoA substrate specificity, linseed microsomal membranes; assay type: biochemical; settings: for Percentage incorporation in comparison with the incorporation of oleic acid: 20 nmol acyl-CoA, sn-1-oleoyl-lysophosphatidic acid, DTNB assay
Protocol: as §1
(§3) The specificity of the LPAAT was studied in order to verify whether the enzyme has a preference for certain acyl-CoAs, in particular to determine whether the LPAAT from oil seed plants converts LCPUFA-CoAs. […] The assay comprised sn-1-oleoyl-lysophosphatidic acid (30 nmol), DTNB (50 nmol) and 20 nmol of one of the following acyl-CoAs: palmitoyl-CoA (16:0-CoA), stearoyl-CoA (18:0-CoA), oleoyl-CoA (18:1-CoA), linoleoyl-CoA (18:2-CoA), dihomo-gamma-linolenyl-CoA (20:3-CoA) or arachidonyl-CoA (20:4-CoA) in 1 ml of 0.1 M phosphate buffer, pH 7.2. […] Microsomal membranes (equivalent to 10 μg of protein in the case of Mortierella and 40 μg of protein in the case of sunflower and linseed) were added to the reaction mixture in order to start the reaction.

LPCAT [3] = assay: LPCAT acyl-CoA substrate specificity, linseed microsomal membranes; assay type: biochemical; settings: for Percentage incorporation in comparison with the incorporation of oleic acid: 20 nmol acyl-CoA, sn-1-palmitolysophosphatidylcholine, DTNB assay
Protocol: as §1
(§4) LPCAT activity was determined in a continuous spectraphotometric assay in which 5,5-dithiobis-2-nitrobenzoate (DTNB) was used, and the change in absorption at 409 nm and 25° C. was monitored. The assay comprised sn-1-palmitolysophosphatidylcholine (30 nmol) as acyl acceptor, DTNB (50 nmol) and 20 nmol of one of the following acyl-CoAs: myristoyl-CoA (14:0-CoA), palmitoyl-CoA (16:0-CoA), palmitoleoyl-CoA (16:1-CoA), stearoyl-CoA (18:0-CoA), oleoyl-CoA (18:1-CoA), linoleoyl-CoA (18:2-CoA), dihomo-gamma-linolenyl-CoA (20:3-CoA) or arachidonyl-CoA (20:4-CoA) in 1 ml of 0.1 M phosphate buffer, pH 7.2. The reaction was started by addition of microsomal membrane preparation. The amount of microsomal membrane preparation added was 5 μg (Mortierella and sunflower) or 30 μg (linseed).

GPAT [4] = assay: GPAT acyl-CoA substrate specificity, sunflower microsomal membranes; assay type: biochemical; settings: for Percentage incorporation in comparison with the incorporation of oleic acid: 0.2 mM acyl-CoA, 5 mM [14C] G3P, 5 minutes
Protocol: as §1, §2

LPAAT [5] = assay: LPAAT acyl-CoA substrate specificity, sunflower microsomal membranes; assay type: biochemical; settings: for Percentage incorporation in comparison with the incorporation of oleic acid: 20 nmol acyl-CoA, sn-1-oleoyl-lysophosphatidic acid, DTNB assay
Protocol: as §1, §3

LPCAT [6] = assay: LPCAT acyl-CoA substrate specificity, sunflower microsomal membranes; assay type: biochemical; settings: for Percentage incorporation in comparison with the incorporation of oleic acid: 20 nmol acyl-CoA, sn-1-palmitolysophosphatidylcholine, DTNB assay
Protocol: as §1, §4

GPAT [7] = assay: GPAT acyl-CoA substrate specificity, Mortierella microsomal membranes; assay type: biochemical, Mortierella alpina; settings: for Percentage incorporation in comparison with the incorporation of oleic acid: Mortierella GPAT, 0.5 mM acyl-CoA, 5 mM [14C] G3P, 5 minutes
Protocol: (§5) Mortierella cultures were harvested after 5 days and placed on ice. All further procedures were carried out at 4° C. The mycelium was suspended in 0.1 M sodium phosphate buffer (pH 7.2), comprising 0.33 M sucrose, 0.1% BSA (free from fatty acids), 1000 units of catalase/ml and 1 mM Pefabloc. The following steps were carried out as described under “preparations of microsomal membranes from cotyledons of maturing seeds of sunflower and linseed”.
as §2

LPAAT [8] = assay: LPAAT acyl-CoA substrate specificity, Mortierella microsomal membranes; assay type: biochemical, Mortierella alpina; settings: for Percentage incorporation in comparison with the incorporation of oleic acid: Mortierella LPAAT, 20 nmol acyl-CoA, sn-1-oleoyl-lysophosphatidic acid, DTNB assay
Protocol: as §5, §3

LPCAT [9] = assay: LPCAT acyl-CoA substrate specificity, Mortierella microsomal membranes; assay type: biochemical, Mortierella alpina; settings: for Percentage incorporation in comparison with the incorporation of oleic acid: Mortierella LPCAT, 20 nmol acyl-CoA, sn-1-palmitolysophosphatidylcholine, DTNB assay
Protocol: as §5, §4

CCCCC/C=C\C/C=C\C/C=C\C/C=C\CCCC(=O)SCCNC(=O)CCNC(=O)[C@H](O)C(C)(C)COP(=O)(O)OP(=O)(O)OC[C@H]1O[C@@H](n2cnc3c(N)ncnc32)[C@H](O)[C@@H]1OP(=O)(O)O [Arachidonoyl-CoA, arachidonyl-CoA]
Percentage incorporation in comparison with the incorporation of oleic acid (GPAT [1]): 5%
Percentage incorporation in comparison with the incorporation of oleic acid (LPAAT [2]): 19%
LPCAT activity (in words) (LPCAT [3]): no LPCAT activity was detected
Percentage incorporation in comparison with the incorporation of oleic acid (LPCAT [3]): 0%
Percentage incorporation in comparison with the incorporation of oleic acid (GPAT [4]): 23%
Percentage incorporation in comparison with the incorporation of oleic acid (LPAAT [5]): 18%
Percentage incorporation in comparison with the incorporation of oleic acid (LPCAT [6]): 4%
Percentage incorporation in comparison with the incorporation of oleic acid (GPAT [7]): 75%
Percentage incorporation in comparison with the incorporation of oleic acid (LPAAT [8]): 65%
Percentage incorporation in comparison with the incorporation of oleic acid (LPCAT [9]): 90%

CCCCC/C=C\C/C=C\CCCCCCCC(=O)SCCNC(=O)CCNC(=O)[C@H](O)C(C)(C)COP(=O)(O)OP(=O)(O)OC[C@H]1O[C@@H](n2cnc3c(N)ncnc32)[C@H](O)[C@@H]1OP(=O)(O)O [Linoleoyl-CoA, linoleoyl-CoA]
Percentage incorporation in comparison with the incorporation of oleic acid (GPAT [1]): 90%
Percentage incorporation in comparison with the incorporation of oleic acid (LPAAT [2]): 120%
LPCAT activity (in words) (LPCAT [3]): converted equally efficiently
Percentage incorporation in comparison with the incorporation of oleic acid (LPCAT [3]): 100%
Percentage incorporation in comparison with the incorporation of oleic acid (GPAT [4]): 85%
Percentage incorporation in comparison with the incorporation of oleic acid (LPAAT [5]): 250%
Percentage incorporation in comparison with the incorporation of oleic acid (LPCAT [6]): 120%
Percentage incorporation in comparison with the incorporation of oleic acid (GPAT [7]): 90%
Percentage incorporation in comparison with the incorporation of oleic acid (LPAAT [8]): 90%
Percentage incorporation in comparison with the incorporation of oleic acid (LPCAT [9]): 40%

CCCCCCCC/C=C\CCCCCCCC(=O)SCCNC(=O)CCNC(=O)[C@H](O)C(C)(C)COP(=O)(O)OP(=O)(O)OC[C@H]1O[C@@H](n2cnc3c(N)ncnc32)[C@H](O)[C@@H]1OP(=O)(O)O [Oleoyl-CoA, oleoyl-CoA]
Rate of the incorporation of oleic acid (GPAT [1]): 6 nmol/min/mg protein
Percentage incorporation in comparison with the incorporation of oleic acid (GPAT [1]): 100%
Rate of the incorporation of oleic acid (LPAAT [2]): 25 nmol/min/mg protein
Percentage incorporation in comparison with the incorporation of oleic acid (LPAAT [2]): 100%
LPCAT activity (in words) (LPCAT [3]): converted equally efficiently
Rate of the incorporation of oleic acid (LPCAT [3]): 9 nmol/min/mg protein
Percentage incorporation in comparison with the incorporation of oleic acid (LPCAT [3]): 100%
Rate of the incorporation of oleic acid (GPAT [4]): 13 nmol/min/mg protein
Percentage incorporation in comparison with the incorporation of oleic acid (GPAT [4]): 100%
Rate of the incorporation of oleic acid (LPAAT [5]): 28 nmol/min/mg protein
Percentage incorporation in comparison with the incorporation of oleic acid (LPAAT [5]): 100%
Rate of the incorporation of oleic acid (LPCAT [6]): 360 nmol/min/mg protein
Percentage incorporation in comparison with the incorporation of oleic acid (LPCAT [6]): 100%
Percentage incorporation in comparison with the incorporation of oleic acid (GPAT [7]): 100%
Rate of the incorporation of oleic acid (GPAT [7]; Mortierella alpina GPAT): 30 nmol/min/mg protein
Percentage incorporation in comparison with the incorporation of oleic acid (LPAAT [8]): 100%
Rate of the incorporation of oleic acid (LPAAT [8]; Mortierella alpina LPAAT): 51 nmol/min/mg protein
Percentage incorporation in comparison with the incorporation of oleic acid (LPCAT [9]): 100%
Rate of the incorporation of oleic acid (LPCAT [9]; Mortierella alpina LPCAT): 350 nmol/min/mg protein

CCCCC/C=C\C/C=C\C/C=C\CCCCCCC(=O)SCCNC(=O)CCNC(=O)[C@H](O)C(C)(C)COP(=O)(O)OP(=O)(O)OC[C@H]1O[C@@H](n2cnc3c(N)ncnc32)[C@H](O)[C@@H]1OP(=O)(O)O [20:3-CoA, dihomo-gamma-linolenoyl-CoA]
LPCAT activity (in words) (LPCAT [3]): no LPCAT activity was detected
Percentage incorporation in comparison with the incorporation of oleic acid (LPCAT [3]): 0%
Percentage incorporation in comparison with the incorporation of oleic acid (GPAT [4]): 55%
Percentage incorporation in comparison with the incorporation of oleic acid (GPAT [7]): 80%
Percentage incorporation in comparison with the incorporation of oleic acid (LPAAT [8]): 65%
Percentage incorporation in comparison with the incorporation of oleic acid (LPCAT [9]): 85%

CCCCCCCCCCCCCCCCCC(=O)SCCNC(=O)CCNC(=O)[C@H](O)C(C)(C)COP(=O)(O)OP(=O)(O)OC[C@H]1O[C@@H](n2cnc3c(N)ncnc32)[C@H](O)[C@@H]1OP(=O)(O)O [Stearoyl-CoA, stearoyl-CoA]
Percentage incorporation in comparison with the incorporation of oleic acid (GPAT [1]): 65%
Percentage incorporation in comparison with the incorporation of oleic acid (LPAAT [2]): 30%
Percentage incorporation in comparison with the incorporation of oleic acid (LPCAT [3]): 15%
Percentage incorporation in comparison with the incorporation of oleic acid (GPAT [4]): 40%
Percentage incorporation in comparison with the incorporation of oleic acid (LPAAT [5]): 14%
Percentage incorporation in comparison with the incorporation of oleic acid (LPCAT [6]): 18%
Percentage incorporation in comparison with the incorporation of oleic acid (GPAT [7]): 50%
Percentage incorporation in comparison with the incorporation of oleic acid (LPAAT [8]): 36%
Percentage incorporation in comparison with the incorporation of oleic acid (LPCAT [9]): 10%

CCCCCCCCCCCCCC(=O)SCCNC(=O)CCNC(=O)[C@H](O)C(C)(C)COP(=O)(O)OP(=O)(O)OC[C@H]1O[C@@H](n2cnc3c(N)ncnc32)[C@H](O)[C@@H]1OP(=O)(O)O [Myristoyl-CoA, myristoyl-CoA]
Percentage incorporation in comparison with the incorporation of oleic acid (GPAT [1]): 100%
Percentage incorporation in comparison with the incorporation of oleic acid (LPAAT [2]): 30%
Percentage incorporation in comparison with the incorporation of oleic acid (LPCAT [3]): 0%
Percentage incorporation in comparison with the incorporation of oleic acid (GPAT [4]): 57%
Percentage incorporation in comparison with the incorporation of oleic acid (LPAAT [5]): 16%
Percentage incorporation in comparison with the incorporation of oleic acid (LPCAT [6]): 1%
Percentage incorporation in comparison with the incorporation of oleic acid (LPAAT [8]): 55%
Percentage incorporation in comparison with the incorporation of oleic acid (LPCAT [9]): 0%

CCCCCCCCCCCCCCCC(=O)SCCNC(=O)CCNC(=O)[C@H](O)C(C)(C)COP(=O)(O)OP(=O)(O)OC[C@H]1O[C@@H](n2cnc3c(N)ncnc32)[C@H](O)[C@@H]1OP(=O)(O)O [Palmitoyl-CoA, palmitoyl-CoA]
Percentage incorporation in comparison with the incorporation of oleic acid (GPAT [1]): 90%
Percentage incorporation in comparison with the incorporation of oleic acid (LPAAT [2]): 25%
Percentage incorporation in comparison with the incorporation of oleic acid (LPCAT [3]): 5%
Percentage incorporation in comparison with the incorporation of oleic acid (GPAT [4]): 64%
Percentage incorporation in comparison with the incorporation of oleic acid (LPAAT [5]): 15%
Percentage incorporation in comparison with the incorporation of oleic acid (LPCAT [6]; listed as SSA Palmitoyl-CoA): 13%
Percentage incorporation in comparison with the incorporation of oleic acid (GPAT [7]): 66%
Percentage incorporation in comparison with the incorporation of oleic acid (LPAAT [8]): 40%
Percentage incorporation in comparison with the incorporation of oleic acid (LPCAT [9]): 25%

CCCCCC/C=C\CCCCCCCC(=O)SCCNC(=O)CCNC(=O)[C@H](O)C(C)(C)COP(=O)(O)OP(=O)(O)OC[C@H]1O[C@@H](n2cnc3c(N)ncnc32)[C@H](O)[C@@H]1OP(=O)(O)O [Palmitololeoyl-CoA, palmitoleoyl-CoA]
Percentage incorporation in comparison with the incorporation of oleic acid (LPAAT [2]): 140%
Percentage incorporation in comparison with the incorporation of oleic acid (LPCAT [3]): 180%
Percentage incorporation in comparison with the incorporation of oleic acid (LPAAT [5]): 140%
Percentage incorporation in comparison with the incorporation of oleic acid (LPCAT [6]): 90%
Percentage incorporation in comparison with the incorporation of oleic acid (LPAAT [8]): 70%
Percentage incorporation in comparison with the incorporation of oleic acid (LPCAT [9]): 60%
